Experimental data from ChEMBL document CHEMBL4340566, “Development of indazole mineralocorticoid receptor antagonists and investigation into their selective late-stage functionalization” (Bioorg Med Chem Lett, 2019).

Key:
[1] = target: T1, Glucocorticoid receptor (Homo sapiens, UniProt P04150); test: Binding affinity to glucocorticoid receptor (unknown origin) by gel filtration assay
T1 sequence (P04150 whole entry): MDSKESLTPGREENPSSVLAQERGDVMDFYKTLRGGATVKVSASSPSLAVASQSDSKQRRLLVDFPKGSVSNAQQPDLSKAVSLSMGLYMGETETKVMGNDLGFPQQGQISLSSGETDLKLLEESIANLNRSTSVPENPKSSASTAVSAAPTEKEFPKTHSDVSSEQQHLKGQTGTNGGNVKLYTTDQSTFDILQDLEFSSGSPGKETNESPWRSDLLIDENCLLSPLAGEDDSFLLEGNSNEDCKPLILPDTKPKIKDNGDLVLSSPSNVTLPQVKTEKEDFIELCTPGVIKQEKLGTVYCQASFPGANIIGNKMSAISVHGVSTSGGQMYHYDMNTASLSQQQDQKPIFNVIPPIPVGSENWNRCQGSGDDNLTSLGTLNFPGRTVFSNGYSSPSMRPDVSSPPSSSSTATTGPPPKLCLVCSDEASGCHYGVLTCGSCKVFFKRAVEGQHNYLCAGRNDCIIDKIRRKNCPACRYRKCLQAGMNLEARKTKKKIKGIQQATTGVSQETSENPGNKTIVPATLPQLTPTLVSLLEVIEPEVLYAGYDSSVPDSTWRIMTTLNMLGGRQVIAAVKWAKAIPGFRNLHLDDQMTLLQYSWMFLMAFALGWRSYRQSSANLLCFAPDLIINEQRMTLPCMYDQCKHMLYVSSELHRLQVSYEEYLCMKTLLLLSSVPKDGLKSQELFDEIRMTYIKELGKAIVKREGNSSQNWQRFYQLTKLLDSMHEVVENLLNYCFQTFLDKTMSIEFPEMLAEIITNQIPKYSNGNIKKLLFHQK

[2] = target: T2, Mineralocorticoid receptor (Homo sapiens, UniProt P08235); test: Antagonist activity at mineralocorticoid receptor (unknown origin)
T2 sequence (P08235 whole entry): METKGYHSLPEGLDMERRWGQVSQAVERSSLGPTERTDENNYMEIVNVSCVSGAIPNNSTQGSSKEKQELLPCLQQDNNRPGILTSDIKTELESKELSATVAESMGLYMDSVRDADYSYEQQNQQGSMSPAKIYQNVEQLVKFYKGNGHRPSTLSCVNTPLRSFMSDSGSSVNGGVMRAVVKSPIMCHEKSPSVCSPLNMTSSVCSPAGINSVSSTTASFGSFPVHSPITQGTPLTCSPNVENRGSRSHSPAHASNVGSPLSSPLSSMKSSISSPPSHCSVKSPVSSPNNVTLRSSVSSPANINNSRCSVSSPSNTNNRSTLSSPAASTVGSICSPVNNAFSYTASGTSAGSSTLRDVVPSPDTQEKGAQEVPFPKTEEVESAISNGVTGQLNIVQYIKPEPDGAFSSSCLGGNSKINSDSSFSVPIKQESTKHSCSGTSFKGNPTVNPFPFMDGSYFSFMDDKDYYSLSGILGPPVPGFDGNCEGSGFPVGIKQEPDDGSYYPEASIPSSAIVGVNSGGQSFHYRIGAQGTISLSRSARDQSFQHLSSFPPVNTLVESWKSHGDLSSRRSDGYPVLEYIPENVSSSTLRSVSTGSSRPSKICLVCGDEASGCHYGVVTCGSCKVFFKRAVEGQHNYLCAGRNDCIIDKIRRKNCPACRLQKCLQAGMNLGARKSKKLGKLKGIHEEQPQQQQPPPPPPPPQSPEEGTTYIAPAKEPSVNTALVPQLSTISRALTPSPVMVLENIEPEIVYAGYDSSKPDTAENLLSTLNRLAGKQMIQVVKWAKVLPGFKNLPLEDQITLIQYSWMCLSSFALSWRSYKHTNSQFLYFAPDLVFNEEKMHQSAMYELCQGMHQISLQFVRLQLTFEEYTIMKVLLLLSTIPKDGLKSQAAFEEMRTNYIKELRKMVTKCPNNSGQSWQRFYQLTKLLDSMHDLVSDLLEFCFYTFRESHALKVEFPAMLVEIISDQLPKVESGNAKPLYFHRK

[3] = Oral bioavailability in Wistar Han rat at 2 mg/kg; assay type: ADME, organism-based; conditions: in vivo
[4] = Half-life in Wistar Han rat at 1 mg/kg, iv or 2 mg/kg, po; assay type: ADME, organism-based; conditions: in vivo; for half-life: Wistar Han
[5] = Metabolic stability in human liver microsomes assessed as parent compound remaining measured at 0.5 hrs; assay type: ADME, Microsome; conditions: read-out: Stability
[6] = Half-life in Wistar Han rat at 2 mg/kg, iv or 10 mg/kg, po; assay type: ADME, organism-based; conditions: in vivo
[7] = organism: Homo sapiens; test: Selectivity ratio of IC50 for glucocorticoid receptor (unknown origin) to IC50 for mineralocorticoid receptor (unknown origin)
[8] = target: T2, Mineralocorticoid receptor; test: Binding affinity to mineralocorticoid receptor (unknown origin)
[9] = Oral bioavailability in Wistar Han rat at 10 mg/kg; assay type: ADME, organism-based; conditions: in vivo
[10] = Clearance in Wistar Han rat at 2 mg/kg, iv or 10 mg/kg, po; assay type: ADME, organism-based; conditions: in vivo
[11] = Oral bioavailability in Sprague-Dawley rat at 2 mg/kg; assay type: ADME, organism-based; conditions: in vivo
[12] = Clearance in Wistar Han rat at 1 mg/kg, iv or 2 mg/kg, po; assay type: ADME, organism-based; conditions: in vivo
[13] = Clearance in Sprague-Dawley rat at 1 mg/kg, iv or 2 mg/kg, po; assay type: ADME, organism-based; conditions: in vivo
[14] = Half-life in Sprague-Dawley rat at 1 mg/kg, iv or 2 mg/kg, po; assay type: ADME, organism-based; conditions: in vivo
[15] = Oral bioavailability in Sprague-Dawley rat at 10 mg/kg; assay type: ADME, organism-based; conditions: in vivo
[16] = Clearance in Sprague-Dawley rat at 2 mg/kg, iv or 10 mg/kg, po; assay type: ADME, organism-based; conditions: in vivo
[17] = Half-life in Sprague-Dawley rat at 2 mg/kg, iv or 10 mg/kg, po; assay type: ADME, organism-based; conditions: in vivo
[18] = Drug metabolism in human liver microsomes assessed as oxidation of electron-rich indole core at 10 uM preincubated for 1 hr followed by NADPH addition by HRMS/MS fragmentation analysis; assay type: ADME, Microsome
[19] = Photostability of the compound under UV-irradiation; assay type: physicochemical
[20] = Drug metabolism in rat liver microsomes assessed as oxidation of electron-rich indole core at 10 uM preincubated for 1 hr followed by NADPH addition by HRMS/MS fragmentation analysis; assay type: ADME, Microsome

SMILES: CC[C@@](c1ccc(C(F)(F)F)cc1)(C(C)O)n1ncc2c(NS(C)(=O)=O)cc(F)cc21 (single isomer, unassigned; diastereomer A) [listing 1 of 2 here]
- IC50 [1]: 10200 nM
- IC50 [2]: 22 nM
- F [3]: 36%
- t1/2 [4]: 1.8 h

SMILES: CC[C@@](c1ccc(C(F)(F)F)cc1)(C(C)O)n1ncc2c(NS(C)(=O)=O)cc(F)cc21 (single isomer, unassigned; diastereomer B) [listing 1 of 2 here]
- IC50 [1]: 4020 nM
- IC50 [2]: 41 nM
- remaining at 0.5 h [5]: 84%
- F [3]: 92%
- t1/2 [4]: 5.2 h

SMILES: CCC(CO)(c1ccc(Cl)cc1)n1ccc2c(NS(C)(=O)=O)cc(Br)cc21 (racemic)
- IC50 [1]: 202 nM
- IC50 [2]: 567 nM

SMILES: CC[C@](CO)(c1ccc(Cl)cc1)n1ccc2c(NS(C)(=O)=O)cc(F)cc21
- half-life [6]: 1.6 h
- IC50 [1]: 111 nM
- Ratio IC50 [7]: 3.5
- IC50 [2]: 116 nM
- IC50 [8]: 32 nM
- bioavailability [9]: 30%
- clearance [10]: 34 mL/min/kg

SMILES: CCC(CC)(c1ccc(Cl)cc1)c1cnc2c(NS(C)(=O)=O)cccn12
- IC50 [2]: 7690 nM

SMILES: CC[C@@](c1ccc(C(F)(F)F)cc1)(C(C)O)n1ncc2c(NS(C)(=O)=O)cc(F)cc21 (single isomer, unassigned; diastereomer B) [listing 2 of 2 here]
- Ratio IC50 [7]: 19

SMILES: CCC(CC)(c1ccc(Cl)cc1)c1nnc2c(NS(C)(=O)=O)cccn12
- IC50 [2]: 5940 nM

SMILES: CCC(CO)(c1ccc(Cl)cc1)n1ccc2c(NS(C)(=O)=O)cc(C#N)cc21 (racemic)
- IC50 [1]: 1050 nM
- IC50 [2]: 22000 nM

SMILES: CCC(CC)(c1ccc(Cl)cc1)n1ccc2c(NS(C)(=O)=O)cccc21
- IC50 [2]: 39 nM

SMILES: CC[C@@](c1ccc(C(F)(F)F)cc1)(C(C)O)n1ncc2c(NS(C)(=O)=O)cc(F)cc21 (single isomer, unassigned; diastereomer A) [listing 2 of 2 here]
- Ratio IC50 [7]: 640

SMILES: CC[C@@](c1ccc(C(F)(F)F)cc1)(C(C)O)n1ncc2c(NS(C)(=O)=O)cccc21 (some centres not stated)
- bioavailability [11]: 92%
- clearance [12]: 14 mL/min/kg
- IC50 [1]: 1640 nM
- Ratio IC50 [7]: 1000
- IC50 [2]: 20 nM
- remaining at 0.5 h [5]: 52%
- bioavailability ([3]; Wistar Han): 92%
- clearance [13]: 14 mL/min/kg
- half-life [4]: 5.7 h
- half-life [14]: 5.7 h

SMILES: CC[C@](CO)(c1ccc(Cl)cc1)n1ncc2c(NS(C)(=O)=O)cccc21
- bioavailability [15]: 59%
- IC50 [1]: 870 nM
- Ratio IC50 [7]: 29
- IC50 [2]: 64 nM
- clearance [16]: 27 mL/min/kg
- half-life [17]: 1.9 h

SMILES: CCC(CC)(c1ccc(Cl)cc1)n1ncc2c(NS(C)(=O)=O)cccc21
- IC50 [2]: 114 nM

SMILES: CC[C@](C(=O)NC)(c1ccc(Cl)cc1)n1ccc2c(NS(C)(=O)=O)cccc21
- Drug metabolism [18]: Metabolite_Detected
- Stability [19]: Unstable
- Drug metabolism [20]: Metabolite_Detected

SMILES: CC[C@](CO)(c1ccc(Cl)cc1)n1ccc2c(NS(C)(=O)=O)cccc21
- clearance [12]: 41 mL/min/kg
- half-life [4]: 1.5 h
